# Results from patent US9737510B2, “Indazole compounds and a process for the preparation thereof” (Council of Scientific & Industrial Research, priority 2013, dated 2017).
# What was measured:
# Pharmacokinetics in mice = assay type: in vivo
# Text: Based on the pharmacokinetics studies performed in Mice NDS100179 is 100% orally bioavailable compound (FIG. 9).
# C57BL/6J mice [1] = assay: Insulin increase / GSIS in C57BL/6J mice; assay type: in vivo
# Experimental: Insulin at 0 and 15 minutes time points was also measured in the studies conducted above where 12-13 weeks male C57BL/6J mice were fasted overnight and in the morning orally dosed with different concentrations of NDS100179 or control vehicle along with 3 g/kg of glucose.
# (§1) NDS100179 induced insulin measurements at low and high glucose condition were carried out in Human Islets, Mice and MIN6 cells.
# [2] = Metabolic study and intrinsic clearance in MLM; assay type: in vitro ADME
# Human Islets = assay: GSIS enhancement in human islets; assay type: cell-based; conditions: low and high glucose
# Experimental: as §1
# HepG2 cells = assay: Glucose uptake (2-NBDG) in insulin resistant HepG2 cells; assay type: cell-based; conditions: 24 hours with drug, 2-NBDG 15 min
# Experimental: The assay was performed after making the HepG2 cells insulin resistant by culturing them in high glucose condition with respective drugs for 24 hours. The assay was performed after 24 hours by allowing the cells to starve for 2 hrs in serum free media (containing respective drug) followed by 30 min incubation in KRB buffer (with respective drugs) and lastly incubating with 2-NBDG (fluorescent glucose analgoue) for 15 min. The cells were thoroughly washed and lysed with 1% triton-X. The fluorescence reading was immediately taken at Ex:465 and […].
# Metabolic study in HLM = assay type: in vitro ADME
# C57BL/6J mice [3] = assay: Oral glucose tolerance test, glucose reduction in non-diabetic C57BL/6J mice; assay type: in vivo; conditions: fasted male C57BL/6J mice, oral dose with 3 g/kg glucose, 0-120 minutes
# Experimental: 12-13 weeks male C57BL/6J mice were fasted overnight. In the morning animals were orally dosed with different concentrations of NDS100179 or control vehicle along with 3 g/kg of glucose. Blood glucose was measured just before the dose and then 30, 60 90 and 120 minutes after the compound dose.
# db/db mice = assay: 30 day oral treatment of db/db mice (fasted glucose, OGTT, beta-cell function, triglyceride, body weight); assay type: in vivo
# Experimental: db/db or leptin null mice are well accepted model of diabetes. 7 week old db/db mice were dosed orally with 10 mg/kg, 30 mg/kg of NDS100179 and vehicle alone for 30 days. Fasted plasma glucose levels in the animals were measured before the start of the study, at day 15 and day 30.
# 7 week db/db mice were dosed orally with 10 mg/kg, 30 mg/kg of NDS100179 and vehicle alone for 30 days. Beta-cell functionality was assessed using HOMA-beta % calculations at the end of 30 days.
# 7 week db/db mice were dosed orally with 10 mg/kg, 30 mg/kg of NDS100179 and vehicle alone for 30 days. Triglyceride levels were measured at the end of 30 days.
# 7 week db/db mice were dosed orally with 10 mg/kg, 30 mg/kg of NDS100179 and vehicle alone for 30 days. Animal body weight was measured every third day.
# Kinetic solubility = assay type: physicochemical
# MIN6 cells = assay: Insulinotropic activity: insulin secretion from MIN6 cells (ELISA based assay); assay type: cell-based, mouse; conditions: for Insulin Secretion: standard error in bracket
# Experimental: Insulinotropic activity of the NDS100178 and NDS100179 was measured by a well-optimized ELISA based Assay (Shantani Protocol #5205) described below.
# Materials • MIN6Cell (source: National Center for Cell Sciences, Pune) • Mouse Insulin ELISA kit (Mercodia, 10-1247-01) • Plate Shaker (MixMatefromEppendorf) • HEPES Balanced Krebs-Ringer bicarbonate buffer (components as follows)
# Method • i. Seed proliferating culture of MIN-6 cells into a 6 well plate with almost half the confluency two days before the experiment. • ii. One the day of Insulin induction experiment, the cells should become almost confluent and are in good condition. • iii. On the day of experiment, first prepare 1×KRB-HEPES buffer with 0.1% BSA (for rinse) and without BSA (for equilibration and insulin induction) as described in the materials. • iv. Prepare equilibration buffer: 1×KRB-HEPES buffer without BSA containing 3.3 mM glucose (to bring down the glucose level of all cells to the same level). For example, add 66 ul 1 M glucose stock solution to 20 ml KRB-HEPES buffer without BSA. • v. Prepare the stimulating buffer (insulin induction): 1×KRB-HEPES buffer without BSA containing the defined glucose level (in most cases, it will be 16.7 mM glucose) and the desired concentration of molecule. • vi. Pre warm all the buffers to 37° C. in the water bath (at 15 minutes). • vii. Remove media from all wells, rinse each well twice with 2 ml KRB-HEPES buffer containing 0.1% BSA. • viii. Add 2 ml of equilibration buffer in each well and incubate at 37° C. for half an hour. • ix. After the incubation add 2 ml of stimulating buffer in respective wells (properly labelled) and incubate 37° C. for 1 hour. • x. In the meanwhile, turn on the refrigerated centrifuge and set the temperature to 4° C. Take out enzyme conjugate, diluent buffer, Calibrator 0 and stripes needed (for example, two stripes for 8 samples to be run in duplicate) from Mercodia ELISA kit box (store at 4° C.) and warm up them to RT. • xi. […] Centrifuge the tubes at 600 g for 5 min. • xiii. Take out 500 ul in fresh properly labelled precooled tubes. • xiv. Now dilute the samples 1:30 in calibrator 0 i.e. add 3 ul of each sample to 87 ul of Calibrator 0 in 8 different properly labelled 0.5 ml tubes. Mix them well. • xv. Prepare 1× enzyme conjugate buffer, i.e. mix 180 ul enzyme (11×) with 1800 ul diluent buffer for ELISA of two stripes. • xvi. Add 10 ul of each sample (diluted, in duplicate) in the two adjacent wells. Be careful not to touch the bottom. • xvii. Carefully add 100 ul of Enzyme Conjugate buffer (1×) to each well and incubate on a plate shaker (eppendorf MixMate) at 800 rpm for 2 hours at 25° C. • xviii. 45 min before the incubation is over take out wash buffer, substrate TMB and Stop solution. Keep them at RT. • xix. 5 min before the incubation is over prepare 1× wash buffer (21×), i.e. 40 ml distilled water+2 ml (21×) wash buffer in a reservoir. • xx. After the incubation is over, wash each well 7 times with 350 ul wash buffer. Use a multichannel (175 ul). • xxi. After the washing add 200 uL substrate TMB solution in each well. Maintain a proper pace. • xxii. Allow to incubate for 15 min. Set the program on the plate reader, to take absorbance read at 450 nm. Add a 5 sec shake step to allow proper mixing. • xxiii. After incubation immediately add 50 ul Stop solution in each well at same pace and take absorbance read at 450 nm.
# Assay conditions were kept same in all the assays. The difference in absorption-value for control experiment (no treatment with molecule) over different days is attributed to cell culture conditions. Other varying conditions are specified in the respective graphs.
# [Note: If not mentioned specifically, HG=High Glucose (16.7 mM), LG=Low Glucose (3.3 mM)]
# CYP3A4 = CYP3A4 (Homo sapiens, UniProt P08684); assay: CYP3A4 inhibition; assay type: in vitro ADME
# [4] = oral 10 mg/kg, 30 mg/kg, end of 30 days
# Sequence of CYP3A4 (P08684 whole entry): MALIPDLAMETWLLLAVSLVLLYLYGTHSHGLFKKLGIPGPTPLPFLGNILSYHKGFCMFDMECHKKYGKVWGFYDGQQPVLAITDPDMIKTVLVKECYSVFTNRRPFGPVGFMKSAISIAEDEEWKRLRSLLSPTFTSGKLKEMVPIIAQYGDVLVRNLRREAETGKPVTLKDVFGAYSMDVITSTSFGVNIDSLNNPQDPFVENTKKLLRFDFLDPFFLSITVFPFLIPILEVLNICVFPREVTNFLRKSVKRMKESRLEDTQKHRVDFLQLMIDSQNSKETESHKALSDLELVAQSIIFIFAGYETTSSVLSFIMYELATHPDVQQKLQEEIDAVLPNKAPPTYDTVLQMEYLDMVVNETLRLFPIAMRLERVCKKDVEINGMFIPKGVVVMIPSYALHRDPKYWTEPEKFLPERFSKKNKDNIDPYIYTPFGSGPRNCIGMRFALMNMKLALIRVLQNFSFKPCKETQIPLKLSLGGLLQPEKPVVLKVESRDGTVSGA
substance,measurement,setting,value
"5-Chloro-3-(4,5-dihydro-1H-imidazol-2-yl)-1-methyl-3a,7a-dihydro-1H-indazole [NDS100179]",AUC(0-t),Pharmacokinetics in mice,837.113 ng·h/mL
same,AUC(inf),Pharmacokinetics in mice,854.231 ng·h/mL
same,AUC(inf)/AUC(0-t) %,Pharmacokinetics in mice,102.049%
same,Cmax,Pharmacokinetics in mice,631.1 ng/mL
same,Tmax,Pharmacokinetics in mice,15 min
same,oral bioavailability,Pharmacokinetics in mice,100%
same,t½,Pharmacokinetics in mice,102 min
same,GSIS enhancement,"C57BL/6J mice [1]; Mice, low and high glucose",enhance insulin secretion only at high glucose concentration
same,insulin secretion in mice,"C57BL/6J mice [1]; fasted male C57BL/6J mice, oral dose with 3 g/kg glucose, 0 and 15 minutes",blood plasma concentration glucose dependent
same,Intrinsic Clearnace MLM,[2],63.7 μl/min/mg of protein
same,Metabolic Study MLM Mean % PCR*,[2],39.25%
same,GSIS enhancement,Human Islets,enhance insulin secretion only at high glucose concentration
same,glucose uptake in HepG2 cells,HepG2 cells,increase glucose uptake
same,Metabolic Study HLM Mean % PCR*,Metabolic study in HLM,80.11%
same,blood glucose (oral glucose tolerance test),C57BL/6J mice [3],dose dependently reduce the blood glucose
same,glucose tolerance (OGTT),db/db mice; at the end of 30 days of oral treatment,significant improvement in glucose tolerance
same,fasted plasma glucose (basal glucose level),"db/db mice; oral 10 mg/kg and 30 mg/kg for 30 days, day 0, 15, 30",significant control in rise of basal glucose level
same,body weight,"db/db mice; oral 10 mg/kg, 30 mg/kg for 30 days, measured every third day",No significant change in body weight
same,beta-cell function (HOMA-beta %),db/db mice; [4],significant improvements in beta-cell functions
same,triglyceride levels,db/db mice; [4],significant reduction in triglyceride levels
same,rise in fasted blood glucose levels,db/db mice; oral 30 mg/kg for 30 days,no statistically significant rise
same,solubility kinetic,Kinetic solubility,205.27 µM
same,insulin secretion from MIN6 cells in high glucose conditions,"MIN6 cells; 33 uM, 1 hour, high glucose (16.7 mM), three different days",significant increase in the insulin secretion
same,insulin secretion over control,"MIN6 cells; MIN6 cells, 10 nM",not found to be statistically significant
same,insulin secretion over control,"MIN6 cells; MIN6 cells, 50 nM",active insulinotrope
same,insulin secretion over control,"MIN6 cells; MIN6 cells, 100 nM",active insulinotrope
same,Insulin Secretion,"MIN6 cells; MIN6 cells, compound 0.1 μM",5.55 (1.0) ng/ml
same,Insulin Secretion,"MIN6 cells; MIN6 cells, compound 1.0 μM",10.27 (0.6) ng/ml
same,Insulin Secretion,"MIN6 cells; MIN6 cells, compound 10.0 μM",15.45 (1.2) ng/ml
same,glucose dependence of insulinotropic activity,"MIN6 cells; MIN6 cells, high glucose vs lower glucose conditions",glucose dependent
same,GSIS enhancement,"MIN6 cells; MIN6 cells, low and high glucose",enhance insulin secretion only at high glucose concentration
same,CYP3A4 Inhibition,CYP3A4,No inhibition
